Experimental data from patent US5010105A, “Antihypercholesterolemic compounds” (Merck & Co., Inc., priority 1990, dated 1991).

Tested on: HMG-CoA reductase
Assay: intrinsic HMG-CoA reductase inhibition, in vitro protocol of J. Med. Chem., 28, p. 347-358 (1985)
Assay type: biochemical
Settings: IC50 of test compound compared with compactin (mevastatin) determined simultaneously; compactin assigned a value of 100
Method: The intrinsic HMG-CoA reductase inhibition activity of the claimed compounds is measured in the in vitro protocol published in J. Med. Chem., 28, p. 347-358 (1985).
For estimation of relative inhibitory potencies, compactin (i.e., mevastatin) was assigned a value of 100 and the IC50 value of the test compound was compared with that of compactin determined simultaneously in the published in vitro protocol.

relative potency: 186
Compound: CCC(C)(C)C(=O)O[C@H]1C[C@@H](C)C[C@]23C[C@H]2C(=O)[C@H](C)[C@H](CC[C@@H]2C[C@@H](O)CC(=O)O2)[C@@H]13 [Example 1, 6(R)-[2-[2(R),6(S)-dimethyl-8(S)-(2,2-dimethylbutyryloxy)-α-4,4a-methyleno-1,2,3,4,4a,5,6,7,8,8a(R)-decahydro-3-oxo-naphthyl-1(S)]ethyl]-4(R)-hydroxy-3,4,5,6-tetrahydro-2H-pyran-2-one]
